Laboratory results as given in paper PMC9694494, “Resveratrol/Hydrazone Hybrids: Synthesis and Chemopreventive Activity against Colorectal Cancer Cells” (Pharmaceutics, 2022).
Read-outs that look alike come from different tables or passages of the source.

What was measured:
SW480 cells [1] = assay: SRB cell viability (cytotoxicity), SW480; type: cell-based, human; details: for Selectivity Index SI1: CHO-K1/SW480 IC50 ratio; for Selectivity Index SI2: HaCaT/SW480 IC50 ratio; for IC50: Homo sapiens, SW480, SRB, read-out: IC50 ± SEM SW480
Experimental: (§1) Human colon cancer cell lines (SW480 and SW620), together with nonmalignant cells (CHO-K1 and HaCaT) were used to study the biological activity. Cells were purchased from the European Collection of Authenticated Cell Cultures (ECACC, UK). Dulbecco’s Modified Eagle Medium (DMEM) containing heat-inactivated (56 °C) horse serum (10%), non-essential amino acids (1%) and antibiotics (penicillin/streptomycin, 1%) (Gibco Invitrogen, Carlsbad, CA, USA) was used to maintain the cells, reducing the horse serum to 3%, and, adding insulin ([…]), transferrin ([…]) and selenium (5 ng/mL) (ITS-defined medium; Gibco, Invitrogen, Carlsbad, CA, USA) for all the experiments.
(§2) The colorimetric test with Sulforhodamine B (SRB) was used to evaluate cell viability. Cell density was adjusted to seed 20.000 cells/well in 96-well tissue culture plates. Cells were first incubated for 24 h and then treated with the synthesized hybrids, the lead compounds (PIH and resveratrol), and the reference drug (5-FU) (concentrations between 0.01 and 200 µM), using DMSO (below 1%) as vehicle control. The optimum conditions were 37 °C and 5% CO2. After the end of each treatment, cold trichloroacetic acid (MERCK, 50% v/v) was added and preserved for one hour at 4 °C, to fix the cells. Then, cell proteins were stained with 0.4% (w/v) SRB (Sigma-Aldrich, St. Louis, MO, USA), and subsequently washed with acetic acid (1%) to remove unbound SRB. After air-drying, protein-bound SRB was solubilized in 10 mM Tris-base before reading the absorbance at 492 nm in a microplate reader (Mindray MR-96A). All experiments were performed at least three times.

SW480 cells [2] = assay: Antiproliferative activity (SRB, 2-8 days), SW480; type: cell-based; details: Homo sapiens, read-out: Viability (%) ± SE; for viability at 3 µM: SW480, 3 µM; for viability at 6 µM: SW480, 6 µM; for viability at 12 µM: SW480, 12 µM; for viability at 24 µM: SW480, 24 µM; for viability at 48 µM: SW480, 48 µM
Experimental: The procedure for evaluating the antiproliferative activity was carried out using the same colorimetric test (SRB) described for cell viability, with minor modifications. Briefly, 2500 cells/well were seeded in 96-well tissue culture plates and incubated as in the previously described conditions for 0, 2, 4, 6, and 8 days. […] The culture medium was changed every 48 h. After each incubation time, cells were fixed, stained, and read as previously described for this technique.

SW620 cells = assay: SRB cell viability (cytotoxicity), SW620; type: cell-based, human; details: for Selectivity Index SI3: CHO-K1/SW620 IC50 ratio; for Selectivity Index SI4: HaCaT/SW620 IC50 ratio; for IC50: Homo sapiens, SW-620, SRB, read-out: IC50 ± SEM SW620
Experimental: as §1, §2

CHO-K1 cells = assay: SRB cell viability (cytotoxicity), CHO-K1; type: cell-based; details: Cricetulus griseus, CHO-K1 nonmalignant cells, read-out: IC50 ± SEM CHO
Experimental: as §1, §2

HaCaT cells = assay: SRB cell viability (cytotoxicity), HaCaT; type: cell-based; details: Homo sapiens, HaCaT nonmalignant cells, read-out: IC50 ± SEM HACAT
Experimental: as §1, §2

SW480 cells [3] = assay: Mitochondrial membrane potential (DiOC6/PI flow cytometry), SW480; type: cell-based, human; details: SW480, treated at IC50 value, DiOC6/PI
Experimental: To evaluate changes in mitochondrial membrane permeability, the fluorescent dyes DiOC6 (3,3′-dihexyloxacarbocyanine iodide, Thermo Fisher Scientific, Waltham, MA, USA) and propidium iodide (PI) were used. Cell density was adjusted to seed 2.5 × 10^5 cells/well in 6-well tissue culture plates. […] Subsequently, cells were scraped with the same culture mean and stained with both fluorescent dyes, incubating at room temperature for 30 min in darkness. For each sample, 10,000 events were analyzed through flow cytometry with excitation at 488 nm and detection of the emission with the green (530/15 nm) and the red (610/20 nm) filters. The results informed about the cells with depolarized mitochondrial membranes.

COc1ccc(C(=O)N/N=C/c2c(O)cc(O)cc2/C=C/c2ccc(O)cc2)c(OC)c1 [6e, N′-((E)-2,4-dihydroxy-6-((E)-4-hydroxystyryl)benzylidene)-2,4-dimethoxybenzohydrazide]
Selectivity Index SI1 (SW480 cells [1]; 24 H): 0.85 | Selectivity Index SI2 (SW480 cells [1]; 24 H): 1.42 | Selectivity Index SI1 (SW480 cells [1]; 48 H): 2.89 | Selectivity Index SI2 (SW480 cells [1]; 48 H): 2.94 | IC50 (SW480 cells [1]; 24 H): 24.2 ± 3.29 µM | IC50 (SW480 cells [1]; 48 H): 6.5 ± 1.9 µM | selectivity (SI) (SW480 cells [1]; SW480 versus the nonmalignant cell lines, 48 h after treatment): > 1 | viability at 3 µM (SW480 cells [2]; 48 h, 2 days after plating): 95 ± 3.11% | viability at 6 µM (SW480 cells [2]; 48 h, 2 days after plating): 58.9 ± 0.89% | viability at 12 µM (SW480 cells [2]; 48 h, 2 days after plating): 38.4 ± 2.67% | viability at 24 µM (SW480 cells [2]; 48 h, 2 days after plating): 23.9 ± 0.82% | viability at 48 µM (SW480 cells [2]; 48 h, 2 days after plating): 9.44 ± 1.17% | viability at 3 µM (SW480 cells [2]; 96 h, 4 days after plating): 68.5 ± 1.31% | viability at 6 µM (SW480 cells [2]; 96 h, 4 days after plating): 10.5 ± 0.87% | viability at 12 µM (SW480 cells [2]; 96 h, 4 days after plating): 2.78 ± 0.42% | viability at 24 µM (SW480 cells [2]; 96 h, 4 days after plating): 0.81 ± 0.38% | viability at 48 µM (SW480 cells [2]; 96 h, 4 days after plating): 0.3 ± 0.33% | viability at 3 µM (SW480 cells [2]; 144 h, 6 days after plating): 49 ± 2.08% | viability at 6 µM (SW480 cells [2]; 144 h, 6 days after plating): 5.03 ± 0.19% | viability at 12 µM (SW480 cells [2]; 144 h, 6 days after plating): 0.76 ± 0.36% | viability at 24 µM (SW480 cells [2]; 144 h, 6 days after plating): 0% | viability at 48 µM (SW480 cells [2]; 144 h, 6 days after plating): 0% | viability at 3 µM (SW480 cells [2]; 192 h, 8 days after plating): 33.86 ± 0.3% | viability at 6 µM (SW480 cells [2]; 192 h, 8 days after plating): 2.52 ± 0.1% | viability at 12 µM (SW480 cells [2]; 192 h, 8 days after plating): 0.48 ± 0.11% | viability at 24 µM (SW480 cells [2]; 192 h, 8 days after plating): 0% | viability at 48 µM (SW480 cells [2]; 192 h, 8 days after plating): 0% | Selectivity Index SI3 (SW620 cells; 24 H): 0.28 | Selectivity Index SI4 (SW620 cells; 24 H): 0.46 | Selectivity Index SI3 (SW620 cells; 48 H): 0.67 | Selectivity Index SI4 (SW620 cells; 48 H): 0.69 | IC50 (SW620 cells; 24 H): 74.8 ± 12.9 µM | IC50 (SW620 cells; 48 H): 27.8 ± 3.9 µM | IC50 (CHO-K1 cells; 24 H): 20.6 ± 3.06 µM | IC50 (CHO-K1 cells; 48 H): 18.8 ± 1.9 µM | IC50 (HaCaT cells; 24 H): 34.4 ± 3.96 µM | IC50 (HaCaT cells; 48 H): 19.1 ± 0.8 µM | Q1: PI-positive cells with membrane damage (SW480 cells [3]): 0.288% | Q2: PI-positive cells with membrane damage (SW480 cells [3]): 0.831% | Q3: DiOC6 high, live cells with high membrane polarization (SW480 cells [3]): 98.6% | Q4: DiOC6 low, cells in latency that lose membrane polarization (SW480 cells [3]): 0.305%
